From US20120196801A1, “Wound-healing, anti-ambustial, regenerating, and anti-viral pharmaceutical formula for local administration” (priority 2011, published 2012)

Test system: endogenous interferon
Set-up: species or system non-linear white mice
Conditions: mouse, in vivo, ip

Substance: Poly I:C
- Minimum Dose Inducing Interferon: 5 µg/mL
- Titer of ME Interferons: 1638 ME
